This note sets out measurements from ChEMBL document CHEMBL1201862, “PubChem BioAssay data set” (2004).

Some test systems named below: SK-MEL-28; UACC-257; SK-OV-3; HOP-62; HCT-15; K562; ACHN; HT-29; Malme-3M; SK-MEL-2; UO-31; EKVX; OVCAR-5; IGROV-1; SNB-19; SNB-75; 786-0; OVCAR-8; NCI-H522; SR.
What all share (experiment): NCI tumour cell line growth inhibition, 48 h

Structures are written as SMILES.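 Assay format: 96-well plates, 48-hour exposure. Abbreviation: GI50, concentration required for 50% inhibition of growth.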 The source made the active and inactive calls. No stated cut-off is given here; in the data, active = GI50 up to about 1.1 µM and inactive = higher. Where only a bound is given, the exact number is not on record here.

Regarding `c1ccc(C2N3CCCCC3[C@@H]3c4[nH]c5ccccc5c4CCN23)cc1` (some centres undefined), the GI50 in the test with SK-MEL-28 was 28 µM (inactive); in the test with UACC-257, > 100 µM (inactive); in the test on SK-OV-3, > 100 µM (inactive); in the test on HOP-62, > 100 µM (inactive); with HCT-15, > 100 µM; in the test with K562, 41.4 µM (inactive). Moreover, the GI50 is > 100 µM (inactive) with ACHN; 17.5 µM (inactive) with HT-29; 27 µM (inactive) in the test with Malme-3M; > 100 µM (inactive) with SK-MEL-2; 70 µM (inactive) in the test on UO-31; > 100 µM (inactive) in the test on EKVX. For the same compound, the GI50 with OVCAR-5 is > 100 µM (inactive); in the test on IGROV-1 it was > 100 µM (inactive); in the test on SNB-19, > 100 µM (inactive); in the test on SNB-75 it was 57.9 µM (inactive); in the test on 786-0, > 100 µM (inactive); in the test with OVCAR-8, > 100 µM (inactive).

As for `CC1(C)[C@H](C(=O)O)N2C(=O)[C@@H](NS(=O)(=O)c3ccc([N+](=O)[O-])cc3)[C@H]2S1(=O)=O`, the GI50 with SK-MEL-28 was > 100 µM (inactive); with UACC-257, > 100 µM (inactive); in the test with SK-OV-3 it was > 100 µM (inactive); with HOP-62 it was > 100 µM (inactive); in the test on HCT-15, > 100 µM; with K562, > 100 µM (inactive). Besides, the GI50 in the test with ACHN, in the test with HT-29, in the test with Malme-3M, in the test with SK-MEL-2, with UO-31 and with EKVX was > 100 µM (inactive) throughout. For the same compound, the GI50 in the test with OVCAR-5, in the test with IGROV-1, with SNB-19, in the test on SNB-75, in the test on 786-0 and in the test on NCI-H522 was > 100 µM (inactive) each time. Further, the GI50 in the test on OVCAR-8 was > 100 µM (inactive).

For the compound `O=C(NC1CCCCC1)NC12CC3CC(CC(F)(C3)C1)C2`, the GI50 in the test with SK-MEL-28, in the test on UACC-257, in the test on SK-OV-3, with HOP-62, in the test with K562 and with ACHN was > 100 µM (inactive) each time. For the same compound, the GI50 was > 100 µM (inactive) with HT-29; > 100 µM (inactive) with Malme-3M; > 100 µM (inactive) in the test with SK-MEL-2; 55.3 µM (inactive) in the test on UO-31; 57.7 µM (inactive) in the test on EKVX; > 100 µM (inactive) in the test with OVCAR-5. Further, the GI50 with IGROV-1 is > 100 µM (inactive); in the test on SNB-19, > 100 µM (inactive); in the test with SNB-75, 40.4 µM (inactive); in the test on 786-0 it was > 100 µM (inactive); with NCI-H522, > 100 µM (inactive); in the test with OVCAR-8 it was > 100 µM (inactive).

Consider `O=c1oc(-c2ccc(O)c(O)c2)cc2cccc(O)c12` [THUNBERGINOL A], for which the GI50 is 22.6 µM (inactive) in the test on UACC-257; 29.4 µM (inactive) in the test with SK-OV-3; 15.2 µM (inactive) in the test with HOP-62; 4.99 µM in the test with HCT-15; 22.1 µM (inactive) in the test on K562; 21.4 µM (inactive) in the test with ACHN. For the same compound, the GI50 in the test with Malme-3M is 31.3 µM (inactive); in the test with SK-MEL-2 it was 26.1 µM (inactive); in the test with UO-31 it was 14.7 µM (inactive); with EKVX it was 14.1 µM (inactive); in the test with OVCAR-5, 22 µM (inactive); in the test on IGROV-1, 6.19 µM (inactive). Further, the GI50 is 19.1 µM (inactive) with SNB-19; 23.1 µM (inactive) in the test on SNB-75; 19.6 µM (inactive) in the test with 786-0; 15.4 µM (inactive) with NCI-H522; 36.6 µM (inactive) with OVCAR-8.

`CCCCCCC1NN(C(C)=O)C(CCCCCC)NN1C(C)=O` (centres undefined): the GI50 with UACC-257 is > 100 µM (inactive); with SK-OV-3 it was > 100 µM (inactive); in the test on HOP-62 it was > 100 µM (inactive); in the test with HCT-15, > 100 µM; in the test on K562, 32 µM (inactive); in the test on ACHN it was > 100 µM (inactive). For the same compound, the GI50 with HT-29, in the test with Malme-3M, in the test on SK-MEL-2, in the test with UO-31, in the test on EKVX and in the test on OVCAR-5 was > 100 µM (inactive) each time. Further, the GI50 in the test with IGROV-1, in the test on SNB-19, in the test with SNB-75, with 786-0, in the test on NCI-H522 and in the test on OVCAR-8 was > 100 µM (inactive) in each case.

`Clc1ccc(OC2CCO2)cc1Cl` (centres undefined): the GI50 in the test with SK-MEL-28 is > 100 µM (inactive); with UACC-257, 40 µM (inactive); with SK-OV-3, > 100 µM (inactive); in the test on HOP-62, 78.9 µM (inactive); in the test with HCT-15, 15.7 µM; in the test with K562, 40.6 µM (inactive). Moreover, the GI50 in the test with ACHN is 49.7 µM (inactive); in the test on HT-29 it was 85.5 µM (inactive); with Malme-3M, > 100 µM (inactive); in the test on UO-31, 62.4 µM (inactive); in the test on EKVX it was > 100 µM (inactive); in the test on OVCAR-5, 83.2 µM (inactive). The GI50 is > 100 µM (inactive) with IGROV-1; > 100 µM (inactive) in the test with SNB-19; > 100 µM (inactive) in the test with SNB-75; 85.9 µM (inactive) with 786-0; 34.3 µM (inactive) with NCI-H522; 96.2 µM (inactive) in the test on OVCAR-8.

As for `CC(C)CNc1nc2ncnc(N)c2[nH]1`, the GI50 in the test on SK-MEL-28 is > 100 µM (inactive); in the test on UACC-257, > 100 µM (inactive); in the test with SK-OV-3, > 100 µM (inactive); in the test on HOP-62, > 100 µM (inactive); in the test with HCT-15, > 100 µM; with K562, > 100 µM (inactive). Also, the GI50 with ACHN, in the test with HT-29, in the test on Malme-3M, in the test with SK-MEL-2, in the test with UO-31 and in the test with EKVX was > 100 µM (inactive) in each case. In addition, the GI50 with OVCAR-5, in the test on IGROV-1, in the test with SNB-19, in the test on 786-0, with NCI-H522 and in the test with OVCAR-8 was > 100 µM (inactive) throughout.

`Cc1c2c(cc3c1[nH]c1ccccc13)C(c1ccc(Cl)cc1)=NCC2`: the GI50 was 1.45 µM (inactive) in the test with SK-MEL-28; 0.621 µM (active) with UACC-257; 2.67 µM (inactive) in the test on SK-OV-3; 0.738 µM (active) in the test with HOP-62; 0.416 µM in the test on HCT-15; 0.328 µM (active) with K562. Moreover, the GI50 is 0.203 µM (active) in the test on HT-29; 1.83 µM (inactive) in the test on Malme-3M; 0.711 µM (active) in the test on SK-MEL-2; 0.644 µM (active) in the test on UO-31; 0.274 µM (active) with EKVX; 7.78 µM (inactive) in the test with OVCAR-5. Further, the GI50 in the test with IGROV-1 was 0.944 µM (active); with SNB-19 it was 0.355 µM (active); in the test on SNB-75, 0.217 µM (active); in the test on NCI-H522, 0.288 µM (active); with OVCAR-8, 0.804 µM (active).

`CC(C)N(C(=O)C1(O)c2ccccc2C=Cc2ccccc21)C(C)C`: the GI50 in the test with SK-MEL-28 is 17.2 µM (inactive); in the test on SK-OV-3, 25.3 µM (inactive); with HOP-62, 19.2 µM (inactive); with HCT-15, 21.1 µM; with ACHN, 16.1 µM (inactive); in the test with HT-29, 15.3 µM (inactive). Besides, the GI50 with Malme-3M was 17.6 µM (inactive); in the test with SK-MEL-2, 17.1 µM (inactive); in the test on UO-31 it was 21.1 µM (inactive); in the test with EKVX it was 16.6 µM (inactive); in the test with OVCAR-5, 14.4 µM (inactive); in the test with IGROV-1, 14.8 µM (inactive). The GI50 in the test on SNB-19 was 19.9 µM (inactive); with SR, 23.3 µM (inactive); in the test with 786-0, 20.6 µM (inactive); with NCI-H522 it was 12.5 µM (inactive); in the test with OVCAR-8, 16.9 µM (inactive).

Consider `N/C(=N\O)N/N=C/c1cc2c(cc1Cl)OCO2`, for which the GI50 with SK-MEL-28 is 64.4 µM (inactive); in the test with UACC-257, 42.3 µM (inactive); with SK-OV-3 it was 26.4 µM (inactive); in the test on HOP-62 it was 36.3 µM (inactive); with HCT-15, 13.7 µM; in the test with K562, 26.1 µM (inactive). For the same compound, the GI50 was 46.1 µM (inactive) in the test on HT-29; > 100 µM (inactive) in the test with Malme-3M; 32.1 µM (inactive) with SK-MEL-2; 21.4 µM (inactive) with UO-31; 60.4 µM (inactive) in the test on EKVX; 32.5 µM (inactive) in the test with OVCAR-5. For the same compound, the GI50 in the test with IGROV-1 is 43 µM (inactive); in the test with SNB-19, > 25.8 µM (inactive); in the test with SNB-75, 30.1 µM (inactive); with NCI-H522, 16 µM (inactive); with OVCAR-8, 40.6 µM (inactive).

For the compound `COc1ccc2c(c1)-c1oc3ccccc3c(=O)c1CO2`, the GI50 with UACC-257 is 31.8 µM (inactive); with SK-OV-3, 35.4 µM (inactive); with HOP-62, 57.4 µM (inactive); with HCT-15, 24.9 µM; with K562 it was 65 µM (inactive); in the test on ACHN, 28.1 µM (inactive). The GI50 with HT-29 was 31.1 µM (inactive); in the test on Malme-3M, 55.8 µM (inactive); in the test with SK-MEL-2, 26.3 µM (inactive); with UO-31, 22.9 µM (inactive); with EKVX it was 25 µM (inactive); with OVCAR-5, > 100 µM (inactive). In addition, the GI50 with IGROV-1 is 25.7 µM (inactive); with SNB-75, 31.6 µM (inactive); with 786-0 it was 31.7 µM (inactive); in the test on NCI-H522, 32.1 µM (inactive); with OVCAR-8, 39.1 µM (inactive).
